Reference: patent US20110251135A1, “INHIBITORS OF PERITONEAL SEEDING OF CANCER CELLS” (University of Utah Research Foundation, priority 2008, published 2011)

Columns and labels:
[1] = test system: IκB phosphorylation and TNFα-induced NF-κB activation; settings: Pierce et al., J Biol Chem 272:21096-103, 1997; cited from earlier work
[2] = test system: adherent HT-29 cells; assay: Annexin V-FITC apoptosis assay, adherent cells; type: cell-based, human
Description: FIG. 3 is a group of graphs that show NF-κB inhibitors cause apoptosis of colon cancer cells. […] The data points represent the average percent of annexin V-positive, propidium iodide-negative cells (of the total cells counted) from triplicate experiments. The error bars represent the standard error of the means. […] The results shown are a graphic representation of individual flow cytometry results expressed as the percentage of cells that were annexin V-positive of those that excluded propidium iodide. […] An immunoblot of the lysates for cleaved PARP was performed. Each lane represents equal total protein concentrations. […] The cells were allowed to adhere to plastic dishes for 1 hour after which they were washed gently in PBS and stained with crystal violet. The crystal violet stained cells were solubilized in deoxycholate and the absorbance detected in a spectrophotometer at 590 nm. The adherent cells were expressed as a fraction of the controls. Each data point represents the average of triplicate experiments and the error bars the standard errors of the means.
(§1) The data points represent the means of triplicate experiments and the error bars the standard errors of the means. […] The percent of apoptotic cells was then determined by the annexin V assay. […] The results shown are typical of two separate experiments. […] Immunoblots were performed for c-IAP-2, TRAF-1, TRAF-2, and FLIP. All lanes contain equal total protein.
(§2) Single cell suspensions were plated at 100,000 cells per well in 24-well plates in media containing DMSO, BAY 11-7082, BAY 11-7085, or MG-132 for 8-24 hours in an incubator. Alternatively, DMSO, BAY 11-7082, BAY 11-7085, or MG-132 were added to cells that were confluent and adherent for several days. The nonadherent cells were aspirated off with the media and spun for 3 minutes at 2,000 rpm in 15 mL polypropylene tubes. The adherent cells were washed twice with PBS, dispersed in trypsin, and spun down for 3 minutes at 2,000 rpm in 15 mL polypropylene tubes. The nonadherent and adherent cells were resuspended in 1× binding buffer (10 mM HEPES/NaOH, pH 7.4, 140 mM NaCl, and 2.5 mM CaCl2) to a final concentration of 10^6 cells/mL. 100 μL of the cell solution were transferred to a 5 mL culture tube and incubated with 5 μL of annexin V-FITC-conjugated monoclonal antibody (Pharmingen) and 10 μl, of propidium iodide (from a 50 μg/mL stock solution made in PBS) in the dark at 25° C. for 15 minutes. 400 μL of binding buffer was added to each tube and the cells were analyzed by flow cytometry immediately. The percent of apoptosis was determined as the percent of annexin V-positive, propidium iodide-negative cells of the total cells counted.

[3] = test system: HT-29 xenografts; assay: Subcutaneous colon cancer xenograft in athymic mice; type: in vivo, mouse; settings: athymic mice; compound alone; cell line not given
Experimental: (§3) DLD-1, HCT-116, and HT-29 cells were cultured for 6 days in soft agar in the presence of DMSO (control), 10 μM BAY 11-7082, or 10 μM BAY 11-7085. The data points represent the means of colony counts per field (20×) performed in 5 different regions of the culture dishes. The data shown represent a typical result of two separate experiments. FIG. 2B and FIG. 2C are graphs that show athymic mice received subcutaneous injections of HT-29 (FIG. B) or HCT-116 (FIG. C) cells, followed by […] of BAY 11-7085 (dark bars) or DMSO (white bars) intraperitoneally twice weekly. The bars represent the 25-75% ranges of the tumor volumes and the horizontal lines in the bars are the medians. Using the Kruskal-Wallace statistical test to compare the median tumor volumes between BAY 11-7085 and DMSO yielded a p-value of 0.005 for HT-29 cells but >0.05 for HCT-116 cells.
HT-29 and HCT-116 cells were harvested in 0.25% trypsin-PBS-EDTA, washed once in media and PBS, and resuspended in PBS at 1 million cells per 200 μL. One million cells were injected either subcutaneously in the backs or intraperitoneally in 5 week old female nu/nu athymic mice (Charles River Labs). For the mice with subcutaneous tumors, the tumors were allowed to establish themselves for 10 days after which they were randomized to BAY 11-7085 or DMSO. For the mice with intraperitoneal tumors, the mice received DMSO or BAY 11-7085 (5 mg/kg) 24 hours before the cancer cells were injected intraperitoneally. […] Subcutaneous tumor sizes were determined by measuring the length and width with calipers. These studies were approved by the University of Utah Institutional Review Board and Institutional Animal Care and Use Committee and performed in the Animal Resource Center. Mice were euthanized when they experienced a greater than 10% loss in body weight or if they appeared ill. Post-mortem examinations included sectioning of kidney, lung, and liver tissues which were stained with hematoxylin and eosin followed by examination for tissue toxicity/damage by an experienced mouse pathologist (E.J.E.) who was blinded to therapy.
HCT-116 and HT-29 cell lines were used to generate subcutaneous tumors in athymic female mice. The mice were subsequently randomized to be treated with vehicle (DMSO) alone or BAY 11-7085 […] twice weekly for 28 days.

[4] = test system: DLD-1, HCT-116, HT-29 colon cancer cell lines; assay: Cell proliferation assay (crystal violet, 96-well); type: cell-based, human
Experimental: as §1
For the cell proliferation assay, cells were dispersed and plated at 40,000 cells/well in 96-well dishes. At various days in culture, the cells were gently washed twice with 100 μL/well of ice-cold blocking buffer (1% radioimmunoassay grade BSA in PBS) and twice with 100 μL/well of ice-cold PBS. The cells were fixed for 10 min in 100% ice-cold methanol (100 μL/well), then allowed to air-dry. The cells were stained with 100 μL/well of 0.1% crystal violet in H20 for 10 minutes, then washed gently four times with dd H20 and four times with PBS. The plates were then air-dried completely. The stained cells were then solubilized in 1% sodium deoxycholate, and the plates read at 590 nm in a spectrophotometer. The absorption at 590 nm is proportional to the number of attached cells.

[5] = test system: HT-29 cells; assay: Soft agar colony formation assay; type: cell-based, human; settings: 10 μM for 6 days
Experimental: as §3
(§4) Anchorage-independent cell growth is a hallmark of cancer cells and is a good correlation to tumorigencity in vivo. Therefore, the effects of BAY 11-7082 and BAY 11-7085 were examined on colon cancer cell growth using the soft agar colony formation assay.

[6] = test system: HCT-116 cells; assay: Soft agar colony formation assay; type: cell-based, human; settings: 10 μM for 6 days
Experimental: as §3, §4

[7] = test system: DLD-1 cells; assay: Soft agar colony formation assay; type: cell-based, human; settings: 10 μM for 6 days
Experimental: as §3, §4

[8] = test system: JNK/SAPK and p38; settings: Pierce et al., J Biol Chem 272:21096-103, 1997; cited from earlier work
[9] = test system: NF-κB; assay: NF-κB electrophoretic mobility shift assay (EMSA), nuclear lysates of treated HT-29 cells; type: cell-based, human; settings: 10 μM, 3 and 6 hour incubations
[10] = test system: transiently suspended HT-29 cells; assay: Apoptosis of transiently suspended cells during readhesion (annexin V assay); type: cell-based, human; settings: for apoptosis of readhering HT-29 colon cancer cells: NF-κB inhibitors other than BAY 11-7085
Experimental: HT-29 cells that were either transiently suspended with trypsin-EDTA or adherent for three days, were treated at time zero with DMSO or 10-100 μM BAY 11-7085. The percent of apoptotic cells was determined using the annexin V flow cytometry assay and graphed versus the dose of BAY 11-7085. FIG. 4B are photographs showing DLD-1, FIG. 4C are photographs showing HCT-116, and FIG. 4D are photographs showing HT-29 cells that were transiently suspended in trypsin-EDTA and allowed to readhere to glass coverslips for 1-24 hours. The cells were fixed and immunostained with an NF-κB p65 subunit monoclonal antibody.
The transiently suspended cells were lysed and allowed to bind to DNA oligonucleotides, containing the NF-κB consensus binding site, that were immobilized to 96-well plates. NF-κB protein bound to the oligonucleotides was detected by an antibody to the p65 subunit that only recognized p65 that is bound to DNA. The positive control was HeLa cells that were stimulated with TNFα. A control was performed using excess free NF-κB oligonucleotides (Competitor). […] NF-κB binding activity was determined by the TransAM assay as in FIG. 5A. […] The data shown represent typical results of three separate experiments. […] An immunoblot for COX-2 was performed.
The percentage of apoptotic cells was determined using the annexin V assay. The data points represent the averages of three experiments; bars, +−.SE. E. DLD-1 and F. HT-29 cells were transduced with an adenovirus containing the IκB super-repressor construct. After 3 days, the cells were transiently suspended and allowed to readhere in the presence of subapoptotic concentrations of BAY 11-7085 or DMSO (vehicle) for 8 hours. The data are expressed as fractions of cells surviving compared with the controls (no adenovirus) and were quantitatively determined by staining the remaining adherent cells with crystal violet.
as §2
Various concentrations of BAY 11-7085 were added to HT-29 cells that were transiently suspended in trypsin-PBS for approximately 15 minutes before replating. The transiently suspended cells were quickly allowed to readhere in order to prevent anoikis. Alternatively, BAY 11-7085 was added to adherent HT-29 cell monolayers.

[11] = test system: colon and pancreatic cancer cells; assay: Apoptosis of colon and pancreatic cancer cells during readhesion; type: cell-based, human; settings: not shown

**Q.** What does the source list for `Cc1ccc(S(=O)(=O)/C=C/C#N)cc1` [BAY 11-7082, (2E)-3-(tolylsulfonyl)-2-propenenitrile]?
**A.** IκB phosphorylation and TNFα-induced NF-κB activation [1]: inhibit IκB phosphorylation and TNFα-induced NF-κB activation; level of apoptosis (annexin V-positive, propidium iodide-negative cells) ([2]; adherent HT-29, 24 hours, BAY compounds at doses up to 20, MG-132 20 μM): caused an increase in the level of apoptosis; colon cancer xenograft growth [3]: inhibit colon cancer xenograft growth; cell proliferation ([4]; 10 μM, cultured up to 8 days): but not BAY 11-7082 greatly inhibited cell proliferation; anchorage-independent proliferation [5]: significantly inhibited; anchorage-independent proliferation [6]: but not HCT-116; anchorage-independent proliferation [7]: significantly inhibited; activation of JNK/SAPK and p38 [8]: activate JNK/SAPK and p38; inhibition of NF-κB activity (EMSA) [9]: more profound inhibition of NF-κB activity occurred with BAY 11-7085 than BAY 11-7082

**Q.** For `S=C(S)N1CCCC1` [PDTC, pyrrolidine dithiocarbamate], which “induction of apoptosis of HT-29 cells during readhesion” value ([10]; various concentrations, 4 hours, compared with BAY 11-7085) is on record?
**A.** caused apoptosis of HT-29 cells during readhesion

**Q.** Which results are given for `CC(C)C[C@H](NC(=O)[C@H](Cc1ccccc1)NC(=O)c1cnccn1)B(O)O` [bortezomib]?
**A.** apoptosis of readhering HT-29 colon cancer cells [10]: failed to induce apoptosis; apoptosis of colon and pancreatic cancer cells during readhesion [11]: failed to induced apoptosis

**Q.** For “cA2: antagonistic and chimeric TNFα monoclonal antibody, inhibits TNFα binding to TNFα receptors”, which “effect of cA2 pretreatment on BAY 11-7085-induced apoptosis” value ([2]; HT-29, 50 μg/mL cA2 for 48 hours, then 20 μM BAY 11-7085 for 24 hours) is on record?
**A.** did not diminish BAY 11-7085-induced apoptosis

**Q.** And the “colon cancer cell proliferation” value ([4]; cA2 at 10 and 50 μg/mL, after several days of treatment)?
**A.** caused a significant inhibition of colon cancer cell proliferation

**Q.** For infliximab, which “apoptosis of readhering HT-29 colon cancer cells” value [10] is on record?
**A.** failed to induce apoptosis

**Q.** What about the “apoptosis of colon and pancreatic cancer cells during readhesion” value [11] of the same compound?
**A.** failed to induced apoptosis
